From US20240424083A1 (priority 2023, published 2024)
Peptide text beside a SMILES is read from it. * marks the point of attachment. Cbz = O=C(OCc1ccccc1)*; CH2F = FC*

Assays:
Type in all cases: cell-based, mouse
2′5′-OAS/RNaseL system = conditions: N15m1-infected BMDMs, 18 hpi; zVAD 20 μM, C16 1 μM
Description: Bioanalyzer RNA analysis. Equal amounts of total RNA purified from BMDMs were analyzed on an Agilent 2100 Bioanalyzer using RNA Nano LabChips.

BMDMs [1] = conditions: N15m1-infected BMDMs, 24 hpi; zVAD 20 μM, Nec-1 25 μM, VX-765 20 μM
Description: Cell death assays. Cell viability and Caspase 3/7 activity were measured using CellTiter Glo (G7571, Promega) or CaspaseGlo 3/7 (G8091, Promega) respectively, according to the manufacturer's protocol, with modification.
Cell death assays. Cell viability and Caspase 3/7 activity were measured using CellTiter Glo (G7571, Promega) or CaspaseGlo 3/7 (G8091, Promega) respectively, according to the manufacturer's protocol, with modification. Briefly, 3.0×10^5 BMDMs/well wereplated in 24-well plates and infected at an MOI of 0.1 for 1 h in serum-free media. Media was replaced with complete media, or for addition of chemical inhibitors, viral inoculum was replaced with completed BMM media containing indicated concentration of inhibitors. Infected BMDMs were incubated for 24 h at 37° C./5% CO2. BMDMs were washed twice with 1×PBS and lysed with 100 μL Glo reagent/medium mixture (1:1). 50 μL of cell lysate was used for measuring the luminescence signal. Standard deviation and unpaired t test were performed on technical triplicates and data are representative of three independent experiments.

BMDMs [2] = tested on: BMDMs

## COC(=O)C[C@H](NC(=O)[C@H](C)NC(=O)[C@@H](NC(=O)OCc1ccccc1)C(C)C)C(=O)CF [zVAD] (Cbz-Val-Ala-Asp(OMe)-CH2F)
2′5′-OAS/RNaseL system
  effect of inhibitor on degradation of host rRNA: not inhibited
BMDMs [1]
  effect of inhibitor on virus-induced cell death: prevented virus-induced cell death
BMDMs [2]
  effect of inhibitor on caspase 3/7 activity in N15m1-infected BMDMs: inhibited
